Structures can show the parent of a compound that is named as a salt. Where two headings read alike, the source gives them in different places.
Tested on: iCell endothelial cells (human iPSC-derived ECs)
Test: Tube formation (tubulogenesis) assay in iCell endothelial cells, 18 h
Type: cell-based
Details: Homo sapiens, Endothelial cell, 18 hr; for activity at 0.1 µM: 0.10 µM
Summary of the method: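 iCell ECs (passages 1–5) seeded 7,500 cells/well on reduced-growth-factor Geltrex in starvation medium, exposed overnight at 37°C to compounds in triplicate concentration–response (0.5% DMSO vehicle). Calcein AM staining, 4× imaging, angiogenesis image analysis; readouts normalized to vehicle, four-parameter logistic fit, POD at 1 SD of vehicle; 100 μM assigned NOAEL if no response.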

[1] = iPSC-EC tube formation, 0.00 µM control = 100.00, read-out: endo.mtl.18hr
[2] = iPSC-EC tube formation, 0.00 µM control = 100.00, read-out: endo.tlps.18hr
[3] = iPSC-EC tube formation, 0.00 µM control = 100.00, read-out: endo.tta.18hr
[4] = iPSC-EC tube formation, 0.00 µM control = 100.00, read-out: endo.ttl.18hr
[5] = iPSC-EC tube formation, top concentration 100.00 µM, read-out: endo.mtl.18hr POD
[6] = iPSC-EC tube formation, top concentration 100.00 µM, read-out: endo.tlps.18hr POD
[7] = iPSC-EC tube formation, top concentration 100.00 µM, read-out: endo.tta.18hr POD
[8] = iPSC-EC tube formation, top concentration 100.00 µM, read-out: endo.ttl.18hr POD
[9] = endothelial cells (endo), tube formation mtl, read-out: POD endo.mtl.18hr
[10] = endothelial cells (endo), tube formation tlps, read-out: POD endo.tlps.18hr
[11] = endothelial cells (endo), tube formation tta, read-out: POD endo.tta.18hr
[12] = endothelial cells (endo), tube formation ttl, read-out: POD endo.ttl.18hr

Clc1cccc(-c2cccc(Cl)c2)c1 [PCB11]
activity at 0.01 µM [1]: 98.5% | activity at 0.01 µM [2]: 118% | activity at 0.01 µM [3]: 148% | activity at 0.01 µM [4]: 143% | activity at 0.1 µM [1]: 102% | activity at 0.1 µM [2]: 117% | activity at 0.1 µM [3]: 118% | activity at 0.1 µM [4]: 116% | activity at 1 µM [1]: 105% | activity at 1 µM [2]: 125% | activity at 1 µM [3]: 132% | activity at 1 µM [4]: 126% | activity at 10 µM [1]: 91.6% | activity at 10 µM [2]: 140% | activity at 10 µM [3]: 80.8% | activity at 10 µM [4]: 80.3% | activity at 100 µM [1]: 105% | activity at 100 µM [2]: 114% | activity at 100 µM [3]: 150% | activity at 100 µM [4]: 150% | minimal effective concentration [5]: 100 µM | minimal effective concentration [6]: 100 µM | minimal effective concentration [7]: 100 µM | minimal effective concentration [8]: 100 µM

O=S(=O)(O)Oc1ccc(-c2cccc(Cl)c2)cc1Cl [4-PCB 11 sulfate]
minimal effective concentration [9]: 25.3 µM | minimal effective concentration [10]: 12.7 µM | minimal effective concentration [11]: 21 µM | minimal effective concentration [12]: 25.6 µM

COc1ccc(-c2ccc(Cl)cc2)cc1 [4'-OMe-PCB 3, 4′-methoxy-4-chlorobiphenyl]
minimal effective concentration [9]: 3.4 µM | minimal effective concentration [10]: 12.3 µM | minimal effective concentration [11]: 7.76 µM | minimal effective concentration [12]: 7.16 µM

Clc1ccc(-c2cc(Cl)c(Cl)c(Cl)c2)cc1Cl [PCB 126, 3,3′,4,4′,5-pentachlorobiphenyl]
minimal effective concentration [9]: 28.1 µM | minimal effective concentration [10]: 4.68 µM | minimal effective concentration [11]: 25.7 µM | minimal effective concentration [12]: 38.9 µM

COc1cc(Cl)c(-c2cc(Cl)ccc2Cl)cc1Cl [4-OMe-PCB 52, 4-methoxy-2,2′,5,5′-tetrachlorobiphenyl]
minimal effective concentration [9]: 52 µM | minimal effective concentration [10]: 56 µM | minimal effective concentration [11]: 51.6 µM | minimal effective concentration [12]: 54.7 µM

Oc1cccc(-c2ccc(Cl)cc2)c1 [3'-OH PCB3]
activity at 0.01 µM [1]: 98% | activity at 0.01 µM [2]: 99.3% | activity at 0.01 µM [3]: 119% | activity at 0.01 µM [4]: 114% | activity at 0.1 µM [1]: 85.4% | activity at 0.1 µM [2]: 107% | activity at 0.1 µM [3]: 73% | activity at 0.1 µM [4]: 72.3% | activity at 1 µM [1]: 88.6% | activity at 1 µM [2]: 76.7% | activity at 1 µM [3]: 71.5% | activity at 1 µM [4]: 69.4% | activity at 10 µM [1]: 59% | activity at 10 µM [2]: 33.8% | activity at 10 µM [3]: 39.4% | activity at 10 µM [4]: 39.8% | activity at 100 µM [1]: 46% | activity at 100 µM [2]: 11.7% | activity at 100 µM [3]: 1.49% | activity at 100 µM [4]: 2.14% | minimal effective concentration [5]: 0.36 µM | minimal effective concentration [6]: 1.03 µM | minimal effective concentration [7]: 0.49 µM | minimal effective concentration [8]: 0.51 µM

O=S(=O)(O)Oc1cc(-c2ccccc2)ccc1Cl [3-PCB 3 sulfate]
minimal effective concentration [9]: 100 µM | minimal effective concentration [10]: 6.75 µM | minimal effective concentration [11]: 100 µM | minimal effective concentration [12]: 100 µM

Source: paper PMC7377239, “Cardiovascular Effects of Polychlorinated Biphenyls and Their Major Metabolites” (Environmental Health Perspectives, 2020)
